This passage reports IC50 results from BindingDB's records for doi:10.1038/nchembio.2326 (California Institute of Technology, 2017).

The target of experiment [1] is 26S proteasome non-ATPase regulatory subunit 14 (Homo sapiens, UniProt O00487). Nature of the experiment: In Vitro Rpn11 Activity Assay. The conditions noted are these: pH 7.5; 30 °C.
Method: Fluorescence polarization assays were performed in low-volume 384-well solid black plates (Molecular Devices) in quadruplicate. The assays were performed in buffer containing 50 mM Tris-HCl pH7.5, 1 mM MgCl2, 50 μM ATP, 1 mM DTT and 0.01% NP-40. The components for the assay were added in the following sequence: (1) 5 μl compound (in 3% DMSO) at different concentrations, (2) 5 μl of diluted human 26S proteasome (Enzo Life Sciences, NY. 26S proteasome was pre-incubated with epoxomicin at room temperature for 1 h, then diluted ten-fold in 1× Assay Buffer), and (3) 5 μl of substrate (3 nM Ub4peptideOG). 100 μM Zn(cyclen)2+ was present in the titration reaction for the experiments performed with Zn(cyclen)2+. Fluorescence polarization was measured at 30 °C using a PHERAstar plate reader (BMG Labtech) with excitation at 480 nm and emission at 520 nm.
Experiment [2] deals with 72 kDa type IV collagenase (Homo sapiens, UniProt P08253). In words: MMP Activity Assay. Conditions: pH 7.5; 37 °C. The method, then:
(§1) The assay was carried out in white NUNC 96-well plates as previously described [Puerta et al., J. Biol. Inorg. Chem., 11:131-138]. Each well contained a total volume of 90 μl including buffer (50 mM HEPES, 10 mM CaCl2, 0.05% Brij-35, pH 7.5), human recombinant MMP (1.16 U/well for MMP2 and 0.007 U/well for MMP12), and the fragment solution. This mixture was incubated at 37 °C for 30 min. The reaction was then initiated by the addition of 10 μl of the fluorogenic MMP substrate (4 μM final concentration, Mca-Pro-Leu-Gly-Leu-Dpa-Ala-Arg-NH2-AcOH) (Mca = (7-methoxycoumarin-4-yl) acetyl; Dpa = N-3-(2,4-dinitrophenyl)-L-a,β-diaminopropionyl). Fluorescence measurements were recorded using a BioTek Synergy H4 fluorescence plate reader every minute for 20 min with excitation and emission wavelengths at 320 and 400 nm, respectively.

Experiment [3] addresses Macrophage metalloelastase (Homo sapiens, UniProt P39900). In words: MMP Activity Assay. The conditions noted are these: pH 7.5; 37 °C. How it is done: as §1
Experiment [4] deals with T1, Histone deacetylase 6 (Homo sapiens, UniProt Q9UBN7).
T1 sequence (Q9UBN7 whole entry): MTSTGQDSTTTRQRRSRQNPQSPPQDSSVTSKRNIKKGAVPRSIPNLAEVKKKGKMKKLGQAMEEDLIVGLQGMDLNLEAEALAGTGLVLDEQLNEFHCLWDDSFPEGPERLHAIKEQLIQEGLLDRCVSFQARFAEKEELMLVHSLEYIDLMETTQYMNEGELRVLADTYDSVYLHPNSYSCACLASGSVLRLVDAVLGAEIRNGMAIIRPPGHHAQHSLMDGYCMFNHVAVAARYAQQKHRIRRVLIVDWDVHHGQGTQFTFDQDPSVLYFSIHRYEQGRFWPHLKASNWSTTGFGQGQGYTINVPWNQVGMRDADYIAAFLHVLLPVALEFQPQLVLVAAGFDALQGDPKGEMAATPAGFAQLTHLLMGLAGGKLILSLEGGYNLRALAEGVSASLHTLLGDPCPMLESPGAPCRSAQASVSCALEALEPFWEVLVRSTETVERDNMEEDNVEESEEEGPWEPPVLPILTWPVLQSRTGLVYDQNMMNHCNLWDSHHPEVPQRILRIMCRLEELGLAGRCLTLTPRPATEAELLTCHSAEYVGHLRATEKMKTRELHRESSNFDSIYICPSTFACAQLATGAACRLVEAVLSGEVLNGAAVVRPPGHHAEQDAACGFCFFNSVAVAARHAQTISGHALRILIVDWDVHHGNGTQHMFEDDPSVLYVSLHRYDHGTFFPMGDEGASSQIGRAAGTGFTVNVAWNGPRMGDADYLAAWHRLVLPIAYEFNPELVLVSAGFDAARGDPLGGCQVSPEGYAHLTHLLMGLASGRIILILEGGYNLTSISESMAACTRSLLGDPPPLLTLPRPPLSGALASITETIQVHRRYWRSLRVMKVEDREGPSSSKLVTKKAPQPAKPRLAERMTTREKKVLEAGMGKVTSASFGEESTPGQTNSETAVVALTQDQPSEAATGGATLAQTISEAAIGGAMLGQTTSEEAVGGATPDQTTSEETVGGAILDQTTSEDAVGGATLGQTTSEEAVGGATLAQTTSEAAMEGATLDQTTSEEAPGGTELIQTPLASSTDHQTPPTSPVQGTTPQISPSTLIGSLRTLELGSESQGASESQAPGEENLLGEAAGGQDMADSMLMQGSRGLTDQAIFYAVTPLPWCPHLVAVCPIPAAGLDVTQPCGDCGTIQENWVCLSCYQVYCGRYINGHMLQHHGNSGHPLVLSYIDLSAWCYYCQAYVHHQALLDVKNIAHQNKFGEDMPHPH
In words: HDAC6 Activity Assay. Conditions: pH 8; 37 °C. How it is done: The enzyme was diluted with 25 mM Tris-Cl, 137 mM NaCl, 2.7 mM KCl, 1 mM MgCl2, 0.1 mg/ml BSA, pH 8.0 buffer and its activity was measured by using Substrate 3 (BPS Bioscience; catalog #50037). The assays were carried out in black, low-binding NUNC 96-well plates. Each well contained a volume of 50 μl including buffer, HDAC (50 ng/well), inhibitor, and substrate (20 μM). Prior to adding substrate, the plate was pre-incubated for 5 min. Upon addition of substrate, the plate was incubated at 37 °C for 30 min. At this point, HDAC assay developer (50 μl, BPS Bioscience; catalog #50030) was added to each well and the plate was incubated for 15 min at room temperature. The fluorescence was recorded with a BioTek FLx800 or Synergy H4 microplate reader.

In experiment [5] the target is Lactoylglutathione lyase (Homo sapiens, UniProt Q04760). Nature of the experiment: GLO1 Activity Assay. Conditions: pH 7; 25 °C. The method, then: Assays were carried out in 100 mM sodium phosphate, pH 7.0 buffer using 96-well Clear UV Plate (Corning UV Transparent Microplates; catalog #3635). A fresh solution of glutathione (pre-substrate 1, 100 mM) as well as methylglyoxal (pre-substrate 2, 100 mM) was prepared in deionized water. The substrate was prepared by adding 14.5 ml of buffer and 0.99 ml of each pre-substrate components. The substrate mixture was vortexed vigorously for 15 s, then allowed to sit at room temperature for 20 min. Initial well volume was 50 μl containing GLO1 (40 ng) and inhibitor. This protein and inhibitor mixture was incubated for 15–20 min before the addition of substrate. To this was then added substrate (150 μl), yielding a maximum amount of 5% DMSO per well. The enzyme activity was measured using a BioTek Synergy H4 plate reader by measuring absorbance at 240 nmevery 1 min for 8 min.

Experiment [6] has as its target BRISC and BRCA1-A complex member 1/BRISC and BRCA1-A complex member 2/BRISC complex subunit Abraxas 2/Lys-63-specific deubiquitinase BRCC36 (Human, UniProt P46736+Q15018+Q9NWV8+Q9NXR7). In words: In Vitro BRCC36 Activity Assay. The method, then:
BRCC36 activity was measured using 1 nM purified BRISC complex and 80 nM di-ubiquitin substrate DiUbK63TAMRA (UF-310, Boston Biochem). TAMRA fluorescence intensity was monitored using a PHERAstar plate reader with excitation at 540 nm and emission at 590 nm. Reactions were performed in black low-volume 384-well plates and analyzed as described above.

Molecules are shown by their SMILES.

Sequence of 26S proteasome non-ATPase regulatory subunit 14 (O00487 whole entry): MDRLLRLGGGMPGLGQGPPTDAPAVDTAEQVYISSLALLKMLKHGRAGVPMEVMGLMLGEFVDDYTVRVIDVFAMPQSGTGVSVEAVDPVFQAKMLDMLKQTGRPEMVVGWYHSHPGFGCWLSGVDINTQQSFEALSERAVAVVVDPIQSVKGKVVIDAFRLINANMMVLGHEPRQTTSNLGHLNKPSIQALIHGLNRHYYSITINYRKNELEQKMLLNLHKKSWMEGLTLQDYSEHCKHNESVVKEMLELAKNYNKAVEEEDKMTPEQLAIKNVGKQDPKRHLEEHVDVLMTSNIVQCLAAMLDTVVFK
Sequence of 72 kDa type IV collagenase (P08253 whole entry, the tested form may be a part): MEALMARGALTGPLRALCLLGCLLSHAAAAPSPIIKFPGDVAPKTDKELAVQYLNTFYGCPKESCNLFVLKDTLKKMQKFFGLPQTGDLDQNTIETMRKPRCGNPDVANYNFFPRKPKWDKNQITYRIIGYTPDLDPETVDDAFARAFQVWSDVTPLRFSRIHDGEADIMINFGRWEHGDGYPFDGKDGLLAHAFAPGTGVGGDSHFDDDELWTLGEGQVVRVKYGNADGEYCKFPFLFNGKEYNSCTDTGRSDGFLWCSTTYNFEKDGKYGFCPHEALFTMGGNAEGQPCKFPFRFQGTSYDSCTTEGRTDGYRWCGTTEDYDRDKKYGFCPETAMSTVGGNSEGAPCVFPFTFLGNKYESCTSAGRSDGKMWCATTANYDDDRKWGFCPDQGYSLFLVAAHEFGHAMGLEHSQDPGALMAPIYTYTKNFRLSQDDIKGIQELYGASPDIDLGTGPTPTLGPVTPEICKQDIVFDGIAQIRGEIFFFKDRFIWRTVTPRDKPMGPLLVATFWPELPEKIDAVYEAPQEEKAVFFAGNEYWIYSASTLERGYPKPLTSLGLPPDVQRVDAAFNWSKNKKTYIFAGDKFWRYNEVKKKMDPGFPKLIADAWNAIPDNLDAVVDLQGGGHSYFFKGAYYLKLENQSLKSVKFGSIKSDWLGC
Sequence of Macrophage metalloelastase (P39900 whole entry): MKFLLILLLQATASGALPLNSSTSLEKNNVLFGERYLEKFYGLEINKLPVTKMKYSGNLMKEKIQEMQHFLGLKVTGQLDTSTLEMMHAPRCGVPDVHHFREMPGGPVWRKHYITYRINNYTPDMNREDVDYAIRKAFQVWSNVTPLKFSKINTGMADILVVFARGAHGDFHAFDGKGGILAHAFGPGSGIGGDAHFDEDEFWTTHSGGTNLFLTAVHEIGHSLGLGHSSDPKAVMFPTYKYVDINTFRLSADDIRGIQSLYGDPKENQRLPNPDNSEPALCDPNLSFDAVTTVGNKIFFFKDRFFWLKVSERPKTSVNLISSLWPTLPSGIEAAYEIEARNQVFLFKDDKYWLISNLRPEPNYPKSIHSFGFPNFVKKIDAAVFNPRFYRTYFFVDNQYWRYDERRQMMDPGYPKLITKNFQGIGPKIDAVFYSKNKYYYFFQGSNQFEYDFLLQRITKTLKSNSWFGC
Sequence of Lactoylglutathione lyase (Q04760 whole entry): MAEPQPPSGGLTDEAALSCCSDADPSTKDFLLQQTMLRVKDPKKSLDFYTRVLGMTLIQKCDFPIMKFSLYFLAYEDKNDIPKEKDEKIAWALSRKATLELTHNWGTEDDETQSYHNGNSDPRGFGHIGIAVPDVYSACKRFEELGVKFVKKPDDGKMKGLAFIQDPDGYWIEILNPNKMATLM

As a reminder, the IC50 is the midpoint of a concentration-inhibition curve. For `Sc1cccc2cccnc12` [8-Mercaptoquinoline (8TQ)], in experiment [1], it took 2.4 µM to reach half-maximal inhibition (IC50).

As for `O=C(NCCc1nccs1)c1cnc2c(S)cccc2c1` [Capzimin], the IC50 was more than 50 µM in experiment [2]; more than 50 µM in experiment [3]; more than 200 µM in experiment [4]; 42.8 µM in experiment [5]; 2.3 µM in experiment [6].
